Tests used:
Danio rerio embryo [1] = assay: spontaneous tail coiling frequency (coils/min/embryo); higher = more spontaneous movement; conditions: 25 hpf
Description: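 Spontaneous tail coilings of zebrafish embryos exposed from 2 hpf were recorded at 24-25 hpf in 1-min videos and detected by a KNIME workflow from grey-value variance. Betamethasone was tested as the dipropionate, diflorasone as the diacetate.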

Danio rerio embryo [2] = assay: EC20 Eye-jaw distance_Decrease; higher = less potent; conditions: exposure time: 4 dpf
Description: (§1)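 Zebrafish embryos (UFZ-OBI strain) were exposed from 2 hpf for 48 h (2 dpf) or 96 h (4 dpf) at 28 °C; spontaneous tail coiling was scored at 25 hpf. Morphological features from automated image analysis (FishInspector), heart rate and locomotor response were fitted with drc models. Quantal endpoints were dichotomised at 2.5 SD from controls and fitted with a log-logistic model; heart rate, pigmentation and STC were normalised to the replicate control mean. Betamethasone was tested as betamethasone dipropionate, diflorasone as diflorasone diacetate.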

Danio rerio embryo [3] = assay: EC10 Eye size_Decrease; higher = less potent
Description: as §1

Danio rerio embryo [4] = assay: EC20 Lack of SB; higher = less potent; conditions: exposure time: 4 dpf
Description: as §1

Danio rerio embryo [5] = assay: EC50 Eye size_Decrease
Description: as §1

Danio rerio embryo [6] = assay: EC10 Curvature_Increase; higher = less potent
Description: as §1

Danio rerio embryo [7] = assay: EC20 Pericard size_Increase; higher = less potent; conditions: exposure time: 4 dpf
Description: as §1

Danio rerio embryo [8] = assay: EC10 Any effect; higher = less potent
Description: as §1

Danio rerio embryo [9] = assay: EC50 Head trunk angle_Decrease; conditions: exposure time: 2 dpf
Description: as §1

Danio rerio embryo [10] = conditions: exposure time: 4 dpf
Description: as §1

Danio rerio embryo [11] = assay: EC50 Pericard size_Increase; conditions: exposure time: 4 dpf
Description: as §1

Danio rerio embryo [12] = assay: EC10 Bladder size_Decrease; higher = less potent; conditions: exposure time: 4 dpf
Description: as §1

Danio rerio embryo [13] = assay: EC10 Body length_Decrease; higher = less potent; conditions: exposure time: 2 dpf
Description: as §1

Danio rerio embryo [14] = assay: EC10 Pericard size_Increase; higher = less potent; conditions: exposure time: 4 dpf
Description: as §1

Danio rerio embryo [15] = assay: EC50 Eye-jaw distance_Decrease; conditions: exposure time: 4 dpf
Description: as §1

Danio rerio embryo [16] = assay: EC10 Lack of SB; higher = less potent; conditions: exposure time: 4 dpf
Description: as §1

Danio rerio embryo [17] = assay: EC10 Otolith-eye distance_Decrease; higher = less potent; conditions: exposure time: 4 dpf
Description: as §1

Danio rerio embryo [18] = assay: EC50 Otolith-eye distance_Decrease; conditions: exposure time: 4 dpf
Description: as §1

Danio rerio embryo [19] = assay: EC20 Bladder size_Decrease; higher = less potent; conditions: exposure time: 4 dpf
Description: as §1

Danio rerio embryo [20] = assay: EC20 Eye size_Decrease; higher = less potent
Description: as §1

Danio rerio embryo [21] = system: Danio rerio embryo
Description: as §1

Danio rerio embryo [22] = assay: EC10 Eye-jaw distance_Decrease; higher = less potent; conditions: exposure time: 4 dpf
Description: as §1

Danio rerio embryo [23] = assay: EC20 Body length_Decrease; higher = less potent; conditions: exposure time: 2 dpf
Description: as §1

Danio rerio embryo [24] = assay: EC20 Otolith-eye distance_Decrease; higher = less potent; conditions: exposure time: 4 dpf
Description: as §1

Danio rerio embryo [25] = assay: EC50 Bladder size_Decrease; conditions: exposure time: 4 dpf
Description: as §1

Danio rerio embryo [26] = assay: EC20 Any effect; higher = less potent
Description: as §1

Danio rerio embryo [27] = assay: EC50 Curvature_Increase
Description: as §1

Danio rerio embryo [28] = assay: EC50 Body length_Decrease; conditions: exposure time: 2 dpf
Description: as §1

Danio rerio embryo [29] = assay: EC20 Curvature_Increase; higher = less potent
Description: as §1

Danio rerio embryo [30] = assay: EC10 Head trunk angle_Decrease; higher = less potent; conditions: exposure time: 2 dpf
Description: as §1

Danio rerio embryo [31] = assay: EC20 Head trunk angle_Decrease; higher = less potent; conditions: exposure time: 2 dpf
Description: as §1

Danio rerio embryo [32] = assay: EC20 Head size_Decrease; higher = less potent; conditions: exposure time: 4 dpf
Description: as §1

Danio rerio embryo [33] = assay: EC50 Head size_Decrease; conditions: exposure time: 4 dpf
Description: as §1

Danio rerio embryo [34] = assay: EC10 Head size_Decrease; higher = less potent; conditions: exposure time: 4 dpf
Description: as §1

COC(=O)Nc1nc2cc(Sc3ccccc3)ccc2[nH]1 [Fenbendazole]
Conditions	EC10 Any effect [nM]	EC10 Curvature Increase [nM]	EC10 Eye size Decrease [nM]	EC20 Any effect [nM]	EC20 Curvature Increase [nM]	EC20 Eye size Decrease [nM]	EC50 Any effect [nM]	EC50 Curvature Increase [nM]	EC50 Eye size Decrease [nM]	spontaneous tail coiling frequency
Danio rerio embryo [1], 0.013 µM	–	–	–	–	–	–	–	–	–	0.94
Danio rerio embryo [1], 0.017 µM	–	–	–	–	–	–	–	–	–	2.28
Danio rerio embryo [1], 0.02 µM	–	–	–	–	–	–	–	–	–	1.96
Danio rerio embryo [1], 0.03 µM	–	–	–	–	–	–	–	–	–	1.28
Danio rerio embryo [1], 0.0319628 µM	–	–	–	–	–	–	–	–	–	4.8
Danio rerio embryo [1], 0.045 µM	–	–	–	–	–	–	–	–	–	1.58
Danio rerio embryo [1], 0.0477056 µM	–	–	–	–	–	–	–	–	–	5.09
Danio rerio embryo [1], 0.048 µM	–	–	–	–	–	–	–	–	–	2.73
Danio rerio embryo [1], 0.064 µM	–	–	–	–	–	–	–	–	–	2.5
Danio rerio embryo [1], 0.067 µM	–	–	–	–	–	–	–	–	–	4.88
Danio rerio embryo [1], 0.0715584 µM	–	–	–	–	–	–	–	–	–	6.17
Danio rerio embryo [1], 0.084 µM	–	–	–	–	–	–	–	–	–	2.72
Danio rerio embryo [1], 0.087 µM	–	–	–	–	–	–	–	–	–	4.84
Danio rerio embryo [1], 0.107 µM	–	–	–	–	–	–	–	–	–	4.95
Danio rerio embryo [3], exposure time: 2 dpf	–	–	31	–	–	–	–	–	–	–
Danio rerio embryo [3], exposure time: 4 dpf	–	–	64	–	–	–	–	–	–	–
Danio rerio embryo [5], exposure time: 2 dpf	–	–	–	–	–	–	–	–	51	–
Danio rerio embryo [5], exposure time: 4 dpf	–	–	–	–	–	–	–	–	82	–
Danio rerio embryo [6], exposure time: 2 dpf	–	22	–	–	–	–	–	–	–	–
Danio rerio embryo [6], exposure time: 4 dpf	–	62	–	–	–	–	–	–	–	–
Danio rerio embryo [8], exposure time: 2 dpf	14	–	–	–	–	–	–	–	–	–
Danio rerio embryo [8], exposure time: 4 dpf	49	–	–	–	–	–	–	–	–	–
Danio rerio embryo [20], exposure time: 2 dpf	–	–	–	–	–	37	–	–	–	–
Danio rerio embryo [20], exposure time: 4 dpf	–	–	–	–	–	70	–	–	–	–
Danio rerio embryo [21], exposure time: 2 dpf	–	–	–	–	–	–	32	–	–	–
Danio rerio embryo [21], exposure time: 4 dpf	–	–	–	–	–	–	70	–	–	–
Danio rerio embryo [26], exposure time: 2 dpf	–	–	–	19	–	–	–	–	–	–
Danio rerio embryo [26], exposure time: 4 dpf	–	–	–	56	–	–	–	–	–	–
Danio rerio embryo [27], exposure time: 2 dpf	–	–	–	–	–	–	–	38	–	–
Danio rerio embryo [27], exposure time: 4 dpf	–	–	–	–	–	–	–	82	–	–
Danio rerio embryo [29], exposure time: 2 dpf	–	–	–	–	27	–	–	–	–	–
Danio rerio embryo [29], exposure time: 4 dpf	–	–	–	–	68	–	–	–	–	–

Conditions	EC10 Bladder size Decrease [nM]	EC10 Body length Decrease [nM]	EC10 Eye-jaw distance Decrease [nM]	EC10 Head trunk angle Decrease [nM]	EC10 Lack of SB [nM]	EC10 Otolith-eye distance Decrease [nM]	EC10 Pericard size Increase [nM]	EC20 Bladder size Decrease [nM]	EC20 Body length Decrease [nM]	EC20 Eye-jaw distance Decrease [nM]	EC20 Head trunk angle Decrease [nM]	EC20 Lack of SB [nM]	EC20 Otolith-eye distance Decrease [nM]	EC20 Pericard size Increase [nM]	EC50 Bladder size Decrease [nM]	EC50 Body length Decrease [nM]	EC50 Eye-jaw distance Decrease [nM]	EC50 Head trunk angle Decrease [nM]	EC50 Lack of SB [nM]	EC50 Otolith-eye distance Decrease [nM]	EC50 Pericard size Increase [nM]
Danio rerio embryo [2]	–	–	–	–	–	–	–	–	–	62	–	–	–	–	–	–	–	–	–	–	–
Danio rerio embryo [4]	–	–	–	–	–	–	–	–	–	–	–	47	–	–	–	–	–	–	–	–	–
Danio rerio embryo [7]	–	–	–	–	–	–	–	–	–	–	–	–	–	73	–	–	–	–	–	–	–
Danio rerio embryo [9]	–	–	–	–	–	–	–	–	–	–	–	–	–	–	–	–	–	41	–	–	–
Danio rerio embryo [10]	–	–	–	–	–	–	–	–	–	–	–	–	–	–	–	–	–	–	50	–	–
Danio rerio embryo [11]	–	–	–	–	–	–	–	–	–	–	–	–	–	–	–	–	–	–	–	–	85
Danio rerio embryo [12]	45	–	–	–	–	–	–	–	–	–	–	–	–	–	–	–	–	–	–	–	–
Danio rerio embryo [13]	–	30	–	–	–	–	–	–	–	–	–	–	–	–	–	–	–	–	–	–	–
Danio rerio embryo [14]	–	–	–	–	–	–	67	–	–	–	–	–	–	–	–	–	–	–	–	–	–
Danio rerio embryo [15]	–	–	–	–	–	–	–	–	–	–	–	–	–	–	–	–	81	–	–	–	–
Danio rerio embryo [16]	–	–	–	–	46	–	–	–	–	–	–	–	–	–	–	–	–	–	–	–	–
Danio rerio embryo [17]	–	–	–	–	–	70	–	–	–	–	–	–	–	–	–	–	–	–	–	–	–
Danio rerio embryo [18]	–	–	–	–	–	–	–	–	–	–	–	–	–	–	–	–	–	–	–	89	–
Danio rerio embryo [19]	–	–	–	–	–	–	–	47	–	–	–	–	–	–	–	–	–	–	–	–	–
Danio rerio embryo [22]	–	–	53	–	–	–	–	–	–	–	–	–	–	–	–	–	–	–	–	–	–
Danio rerio embryo [23]	–	–	–	–	–	–	–	–	35	–	–	–	–	–	–	–	–	–	–	–	–
Danio rerio embryo [24]	–	–	–	–	–	–	–	–	–	–	–	–	77	–	–	–	–	–	–	–	–
Danio rerio embryo [25]	–	–	–	–	–	–	–	–	–	–	–	–	–	–	49	–	–	–	–	–	–
Danio rerio embryo [28]	–	–	–	–	–	–	–	–	–	–	–	–	–	–	–	45	–	–	–	–	–
Danio rerio embryo [30]	–	–	–	37	–	–	–	–	–	–	–	–	–	–	–	–	–	–	–	–	–
Danio rerio embryo [31]	–	–	–	–	–	–	–	–	–	–	38	–	–	–	–	–	–	–	–	–	–

COc1cccc2c1C(=O)c1c(O)c3c(c(O)c1C2=O)C[C@@](O)(C(C)=O)C[C@@H]3O[C@H]1C[C@H](N)[C@H](O)[C@H](C)O1 [Daunorubicin]
Conditions	EC10 Any effect [nM]	EC20 Any effect [nM]	EC50 Any effect [nM]	spontaneous tail coiling frequency
Danio rerio embryo [1], 17.5 µM	–	–	–	2.64
Danio rerio embryo [1], 23.3 µM	–	–	–	1.8
Danio rerio embryo [1], 26.3 µM	–	–	–	3.47
Danio rerio embryo [1], 35 µM	–	–	–	2.25
Danio rerio embryo [1], 39.4 µM	–	–	–	2.69
Danio rerio embryo [1], 52.5 µM	–	–	–	2.33
Danio rerio embryo [1], 59.1 µM	–	–	–	2.7
Danio rerio embryo [1], 78.8 µM	–	–	–	2.14
Danio rerio embryo [1], 88.7 µM	–	–	–	2.85
Danio rerio embryo [8], exposure time: 2 dpf	38300	–	–	–
Danio rerio embryo [8], exposure time: 4 dpf	85900	–	–	–
Danio rerio embryo [21], exposure time: 2 dpf	–	–	185000	–
Danio rerio embryo [21], exposure time: 4 dpf	–	–	90600	–
Danio rerio embryo [26], exposure time: 2 dpf	–	68600	–	–
Danio rerio embryo [26], exposure time: 4 dpf	–	87600	–	–

Conditions	EC10 Bladder size Decrease [nM]	EC10 Body length Decrease [nM]	EC10 Head size Decrease [nM]	EC10 Lack of SB [nM]	EC20 Bladder size Decrease [nM]	EC20 Body length Decrease [nM]	EC20 Head size Decrease [nM]	EC20 Lack of SB [nM]	EC50 Bladder size Decrease [nM]	EC50 Body length Decrease [nM]	EC50 Head size Decrease [nM]	EC50 Lack of SB [nM]
Danio rerio embryo [4]	–	–	–	–	–	–	–	24900	–	–	–	–
Danio rerio embryo [10]	–	–	–	–	–	–	–	–	–	–	–	72300
Danio rerio embryo [12]	9820	–	–	–	–	–	–	–	–	–	–	–
Danio rerio embryo [13]	–	68500	–	–	–	–	–	–	–	–	–	–
Danio rerio embryo [16]	–	–	–	13300	–	–	–	–	–	–	–	–
Danio rerio embryo [19]	–	–	–	–	17500	–	–	–	–	–	–	–
Danio rerio embryo [23]	–	–	–	–	–	80400	–	–	–	–	–	–
Danio rerio embryo [25]	–	–	–	–	–	–	–	–	46800	–	–	–
Danio rerio embryo [28]	–	–	–	–	–	–	–	–	–	106000	–	–
Danio rerio embryo [32]	–	–	–	–	–	–	19700	–	–	–	–	–
Danio rerio embryo [33]	–	–	–	–	–	–	–	–	–	–	43400	–
Danio rerio embryo [34]	–	–	12400	–	–	–	–	–	–	–	–	–
